Data: paper PMC5678437, “A new antagonist for CCR4 attenuates allergic lung inflammation in a mouse model of asthma” (Scientific Reports, 2017)

Experiments:
CCR4 = molecular target: T1, CCR4 (Homo sapiens, UniProt P51679); assay: Chemotaxis inhibition assay, pcDI-CCR4-transfected HEK293 cells; format: cell-based; settings: 1 μM compound, 30 min pretreatment; C27 100 ng/ml; compared with compound 22 and compound 6b
T1 construct: expressed in transfected cells; cell membrane extract
T1 sequence (P51679 1-360): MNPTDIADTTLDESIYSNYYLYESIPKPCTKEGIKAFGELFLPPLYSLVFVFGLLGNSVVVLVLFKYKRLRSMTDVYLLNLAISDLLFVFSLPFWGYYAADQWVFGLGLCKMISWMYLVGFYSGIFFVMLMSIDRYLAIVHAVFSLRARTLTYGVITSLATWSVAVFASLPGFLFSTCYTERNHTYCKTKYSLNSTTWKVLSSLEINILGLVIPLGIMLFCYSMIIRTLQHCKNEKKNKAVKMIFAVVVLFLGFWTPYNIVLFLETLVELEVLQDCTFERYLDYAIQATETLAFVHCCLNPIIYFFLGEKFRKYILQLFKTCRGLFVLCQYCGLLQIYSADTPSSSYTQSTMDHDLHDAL
Protocol: Chemokine receptor expression plasmid was transiently transfected into HEK293 by electroporation at 120 V for 20 ms, using an electric pulse generator (Electro Square Porator ECM 830; BTX, San Diego, CA). Forty-eight-well micro chemotaxis chambers (Neutroprobe, Bethesda, MD, USA) were used in this assay. Forty-eight hours later, the cells were pretreated with compounds or compounds dissolved medium (1‰ DMSO) for 30 min at 37 °C prior to stimulation with chemoattractant. Chemoattractant diluted in RPMI 1640 medium supplemented with 0.1% bovine serum albumin (BSA) was placed in the lower chambers (27.5 μl/well). In these assays, CCL22 and CCL17 (Peprotech, Rocky Hill, NJ, USA) were used as chemoattractant and the final concentrations of chemoattractant were 10 ng/ml and 80 ng/ml respectively. The pcDI-CCR4-transfected HEK293 cells were resuspended in the same medium at a density of 1 × 10^6 cells/ml and added to the upper chambers (55 μl/well). […] Cells that migrated into each filter were counted in five randomly selected high-power fields (400 × ) per well. […] The chemotactic index was calculated and expressed as the number of cells that migrated to the sample over the number of cells that migrated to the control medium.

[1] = tested on: OVA-induced asthmatic mice; assay: Airway hyperresponsiveness to aerosolized methacholine in OVA-induced asthmatic mice; format: in vivo, BALB/c mice; settings: days 24-26, 24 h after final OVA challenge
Protocol: (§1) Male BALB/c 6 week old mice were purchased from the Experimental Animal Center of Zhejiang University. All mice were raised in a specific pathogen-free animal facility. All animal experiments were carried out according to the guidelines for the care and use of laboratory animals and were approved by the ethics committee of Zhejiang University and Peking University, China.
(§2) Mice were sensitized and challenged with chicken egg OVA (sigma-Aldrich, St Louis, MO, USA) as described in details previously. Briefly, after sensitized by intraperitoneal injection of 100 μl (80 μg) OVA in 100 μl alum (Pierce, Rockford, IL, USA) on days 0 and 14, mice were exposure to 1% OVA aerosols for 40 min on days 24–26. Control mice were injected intraperitoneally with saline and exposed to saline aerosols.
(§3) Compound 8a was dissolved in saline with DMSO (0.5%). Half an hour before each OVA challenge, the groups of mice treated with various doses of compound 8a (0.2, 1, 5 mg) inhaled aerosolized compound 8a for 45 min on days 24–26. Compound 8a aerosols were produced by using a Plexiglas chamber and ultrasonic nebulizer. While the budesonide (BUD) group were administered with 5 mg budesonide, and the vehicle group were treated with compound-dissolved vehicle. The Saline was treated as the control.
Twenty-four hours after the last challenge, mice were anesthetized and tracheotomized with a cannula, then ventilated at a fixed breathing rate. Once being stabilized, mice were challenged via the airways with saline or increasing concentrations of Mch (1, 2, 4, 8, 16 mg/ml) by nebulization. Airway resistance was measured by FinePointe Series RC Sites (Buxco Research System). Changes in airway resistance were calculated for each Mch concentration.

[2] = tested on: OVA-induced asthmatic mice; assay: BALF total cell and cell differential counts in OVA-induced asthmatic mice; format: in vivo, BALB/c mice; settings: for total cells count in BALF: vs vehicle
Protocol: as §1, §2, §3
Twenty-four hours after the last exposure, collection of BALF and cell count was performed as previously described. Briefly, lavage was performed by instilling 0.4 ml PBS into lungs and with drawn to collect the cells three times. Total BALF cells were counted. After be centrifuged, the remaining cells was spun onto glass slides, and stained with Wright–Giemsa stain. Differential counts were evaluated by counting 400 total cells.

CCR3 = molecular target: T2, CCR3 (Homo sapiens, UniProt P51677); assay: Chemotaxis assay for receptor specificity, HEK293-CCR3; format: cell-based; settings: compound as chemoattractant in lower chamber, 0.2, 1, 5, 25 μM
T2 sequence (P51677 1-355): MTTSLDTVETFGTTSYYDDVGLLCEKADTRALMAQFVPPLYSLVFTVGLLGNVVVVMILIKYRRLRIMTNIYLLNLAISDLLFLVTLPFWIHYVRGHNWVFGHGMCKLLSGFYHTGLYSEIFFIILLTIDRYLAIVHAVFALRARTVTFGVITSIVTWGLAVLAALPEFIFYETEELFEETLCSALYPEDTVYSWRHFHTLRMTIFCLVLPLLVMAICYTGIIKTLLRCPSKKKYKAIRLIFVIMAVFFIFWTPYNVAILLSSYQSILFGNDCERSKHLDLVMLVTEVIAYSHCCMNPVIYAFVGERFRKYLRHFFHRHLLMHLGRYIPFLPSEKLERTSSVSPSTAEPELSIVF
Protocol: HEK293 cells were transfected with different chemokine receptors. Compound 8a with DMSO was diluted to 0.2 mM, 1 mM, 5 mM and 25 mM, and then we used RPMI 1640 medium containing 0.1% BSA for dilution. The final concentration is: 0.2 μM, 1 μM, 5 μM and 25 μM. DMSO was also diluted 1000-fold with 0.1% BSA RPMI 1640 medium. Chemokines was also diluted to an appropriate concentration. The dilutions of Compound 8a, 1‰ DMSO, the corresponding chemokines of different receptors and 0.1% BSA RPMI 1640 medium were placed in the lower chambers (27.5 μl/well). The transfected HEK293 cells were resuspended in the same medium at a density of 1 × 10^6 cells/ml and added to the upper chambers (55 μl/well).

[3] = 5 mg inhaled aerosol, compared with vehicle treated group
[4] = compound 8a 0.2, 1, 5 mg, budesonide 5 mg, inhaled aerosol

inhibition of chemotaxis of CCR4 transfected HEK293 to C27 (CCR4): more positive efficiency
chemotaxis effect of the compound on HEK293-CCR3 (CCR3): didn’t exert chemotaxis effects
SMILES: O=C(C1CCCCN1)N1CCN(c2nc(Cl)cc(NCc3ccc(Cl)cc3Cl)n2)CC1 (stereo not drawn) [compound 8a, {4-[4-Chloro-6-(2,4-dichloro-benzylamino)-pyrimidin-2-yl]-piperazin-1-yl}-piperidin-2-yl-methanone]
AHR to methacholine compared with asthmatic mice treated with vehicle ([1]; 0.2 mg inhaled aerosol): significantly lower
AHR to methacholine compared with asthmatic mice treated with vehicle ([1]; 1 mg inhaled aerosol): significantly lower
AHR to methacholine compared with asthmatic mice treated with vehicle ([1]; 5 mg inhaled aerosol): significantly lower
total cells count in BALF ([2]; 0.2 mg inhaled aerosol): marginal
total cells count in BALF ([2]; 1 mg inhaled aerosol): remarkably inhibitory effect
absolute number of eosinophils in BALF [2, 3]: significantly decreased
absolute number of lymphocytes in BALF [2, 3]: significantly decreased
total cells count in BALF ([2]; 5 mg inhaled aerosol): remarkably inhibitory effect
number of macrophages in BALF [2, 4]: neither compound 8a nor budesonide affect
number of neutrophils in BALF [2, 4]: neither compound 8a nor budesonide affect
